The source of these data is PubChem BioAssay (NCI).

Some test systems named below: ACHN renal; COLO 205 colon; HT29 colon; NCI-H226 lung; NCI-H23 lung; NCI-H522 lung; SF-268 CNS; SK-MEL-5 melanoma; SNB-75 CNS; SR leukemia.
Holding throughout (experiment): NCI tumour cell line growth inhibition, 48 h

Values joined by “and” are separate entries in the source; they are usually repeats but may differ in a detail not shown here. Equal values may be shown once.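 In this assay, cells in 96-well plates receive the compound at five concentrations for 48 hours. Endpoints are linearly interpolated between the surrounding concentrations. The concentration for 50% growth inhibition is given as GI50. TGI: total growth inhibition.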 Some results are limits rather than exact numbers.

On to `COc1cc2nncc(SCc3ccc(Cl)c(Cl)c3)c2cc1OC`, for which the TGI in the experiment with ACHN renal, with COLO 205 colon, with HT29 colon, with NCI-H226 lung, with NCI-H23 lung and in the experiment on NCI-H522 lung was above 100 µM each time. In addition, the TGI in the experiment with SF-268 CNS was above 100 µM; in the experiment with SK-MEL-5 melanoma, above 100 µM; in the experiment on SNB-75 CNS, 73 µM; in the experiment on SR leukemia, above 100 µM.
`CC(C)c1cccc(C(C)C)c1NC(=O)C(=O)C1SC(=S)NC1=O` (configuration not stated): the TGI with ACHN renal, in the experiment with COLO 205 colon, in the experiment on HT29 colon, in the experiment with NCI-H226 lung, with NCI-H23 lung and in the experiment on NCI-H522 lung was above 100 µM in each case. In addition, the TGI with SF-268 CNS, with SK-MEL-5 melanoma, in the experiment with SNB-75 CNS and in the experiment with SR leukemia was above 100 µM each time.
As for `O=c1[nH]c2c(c3ccccc13)CCc1ccccc1-2`, the TGI in the experiment on ACHN renal, with COLO 205 colon, in the experiment with HT29 colon, in the experiment with NCI-H226 lung, with NCI-H23 lung and in the experiment with NCI-H522 lung was above 100 µM throughout. Further, the TGI in the experiment with SF-268 CNS, in the experiment with SK-MEL-5 melanoma, in the experiment on SNB-75 CNS and with SR leukemia was above 100 µM in each case.
Regarding `O=c1[nH]nc(-c2ccccc2)c2c(-c3ccccc3)onc12`, the GI50 in the experiment with ACHN renal was 3.38 µM; in the experiment on COLO 205 colon it was 0.505 µM; with HT29 colon, 0.391 µM; in the experiment with NCI-H226 lung, above 21 µM; in the experiment with NCI-H23 lung it was 4.83 µM; with NCI-H522 lung it was 0.648 µM. For the same compound, the GI50 with SF-268 CNS was 0.969 µM; in the experiment with SK-MEL-5 melanoma, 0.352 µM; in the experiment with SNB-75 CNS, 0.96 µM; in the experiment on SR leukemia it was 0.288 µM. For the same compound, the TGI was above 100 µM in the experiment on ACHN renal; 9.89 µM in the experiment with COLO 205 colon; above 100 µM in the experiment with HT29 colon; above 100 µM in the experiment with NCI-H226 lung; above 100 µM with NCI-H23 lung; 24.3 µM in the experiment with NCI-H522 lung. For the same compound, the TGI in the experiment on SF-268 CNS is above 77.8 µM; in the experiment with SNB-75 CNS, above 21.9 µM.
In the case of `CCc1c2c(nc3ccc(OCc4ccc(B5OC(C)(C)C(C)(C)O5)cc4)cc13)-c1cc3c(c(=O)n1C2)COC(=O)[C@]3(O)CC`, the GI50 with ACHN renal is 0.0278 µM; with COLO 205 colon, 0.126 µM; in the experiment with HT29 colon, 0.115 µM; in the experiment with NCI-H226 lung it was 0.0214 µM; with NCI-H23 lung, 0.0248 µM; with NCI-H522 lung it was 0.0204 µM. For the same compound, the GI50 in the experiment on SF-268 CNS is below 0.01 µM; with SK-MEL-5 melanoma it was 0.0372 µM; in the experiment on SNB-75 CNS, 0.0183 µM; with SR leukemia, below 0.01 µM. Moreover, the TGI in the experiment with ACHN renal was 2.07 µM; with COLO 205 colon, above 100 µM; in the experiment with HT29 colon, above 100 µM; in the experiment with NCI-H226 lung, 0.454 µM; in the experiment with NCI-H23 lung, 0.219 µM; in the experiment with NCI-H522 lung, above 100 µM. The TGI in the experiment on SF-268 CNS is above 100 µM; in the experiment with SK-MEL-5 melanoma, 0.338 µM; in the experiment on SNB-75 CNS, 0.296 µM; in the experiment on SR leukemia, above 100 µM.
`Nc1nc(Cl)nc2c1ncn2[C@@H]1O[C@H](COS(N)(=O)=O)[C@@H](O)[C@H]1O`: the GI50 was 0.0257 µM and 0.0252 µM in the experiment on ACHN renal; 0.0202 µM and 0.0239 µM in the experiment with COLO 205 colon; 0.0254 µM and 0.03 µM in the experiment on HT29 colon; 0.0174 µM and 0.0167 µM with NCI-H226 lung; 0.021 µM and 0.0288 µM in the experiment with NCI-H23 lung; 0.00503 µM and 0.0212 µM with NCI-H522 lung. Also, the GI50 in the experiment with SF-268 CNS is 0.0234 µM and 0.0269 µM; in the experiment on SK-MEL-5 melanoma it was 0.0168 µM and 0.0179 µM; in the experiment on SNB-75 CNS, 0.0202 µM and 0.0209 µM; in the experiment with SR leukemia, 0.00307 µM. Moreover, the TGI in the experiment with ACHN renal was 0.0778 µM and 0.0657 µM; in the experiment on COLO 205 colon, 0.0489 µM and 0.0543 µM; in the experiment on HT29 colon, 0.0678 µM and 0.0949 µM; in the experiment on NCI-H226 lung, 0.0401 µM and 0.0463 µM; in the experiment on NCI-H23 lung, 0.0538 µM and 0.0982 µM; with NCI-H522 lung, 0.0244 µM and 0.0623 µM. For the same compound, the TGI is 0.0768 µM and 0.088 µM in the experiment on SF-268 CNS; 0.0313 µM and 0.033 µM in the experiment with SK-MEL-5 melanoma; 0.0558 µM and 0.0554 µM in the experiment on SNB-75 CNS; 0.0487 µM and 0.0418 µM in the experiment on SR leukemia.
As to `c1ccc2c(CN3CCC(C4CCN(Cc5cccc6ccccc56)CC4)CC3)cccc2c1`, the TGI in the experiment on ACHN renal was above 100 µM; with COLO 205 colon, 3.39 µM and 3.65 µM; with HT29 colon, 11.7 µM and 11.2 µM; in the experiment on NCI-H226 lung, above 100 µM; with NCI-H23 lung, above 100 µM; in the experiment on NCI-H522 lung, 26.3 µM and 23.4 µM. The TGI with SF-268 CNS was 28.4 µM and > 100 µM; in the experiment with SK-MEL-5 melanoma it was 14.2 µM and 9.41 µM. Also, the GI50 is 31.7 µM and 96.8 µM with NCI-H226 lung; 23.2 µM and > 100 µM in the experiment on NCI-H23 lung; 8.99 µM and 78.7 µM with SF-268 CNS; 2.77 µM and > 27.7 µM in the experiment on SNB-75 CNS; 1.47 µM and 10.2 µM in the experiment on SR leukemia.
For the compound `CCCCN(CCCC)CCC(O)c1cc2ccc(C(F)(F)F)cc2c2cc(C(F)(F)F)ccc12` (configuration not stated), the GI50 in the experiment on ACHN renal is 2.94 µM; with COLO 205 colon, 1.62 µM; with HT29 colon it was 2 µM; in the experiment with NCI-H226 lung it was 2.88 µM; with NCI-H23 lung, 2.08 µM; with NCI-H522 lung, 1.79 µM. In addition, the GI50 with SF-268 CNS is 4.98 µM; in the experiment with SK-MEL-5 melanoma, 1.76 µM; in the experiment on SNB-75 CNS it was 3.46 µM; in the experiment on SR leukemia, 1.61 µM. For the same compound, the TGI in the experiment on ACHN renal is 12.6 µM; in the experiment with COLO 205 colon, 3.33 µM; in the experiment with HT29 colon, 4.41 µM; in the experiment with NCI-H226 lung, 10.5 µM; with NCI-H23 lung it was 6.81 µM; in the experiment on NCI-H522 lung, 3.54 µM. Moreover, the TGI amounted to 18.3 µM in the experiment on SF-268 CNS, 3.15 µM with SK-MEL-5 melanoma, 15 µM with SNB-75 CNS and 6.41 µM in the experiment with SR leukemia.
On to `O=C1OC(OC/C(Br)=C(/Br)COC2OC(=O)C(Cl)=C2Cl)C(Cl)=C1Cl` (configuration not stated), for which the TGI in the experiment on ACHN renal was 24.8 µM; in the experiment with COLO 205 colon, 10.4 µM; in the experiment with HT29 colon, 28.4 µM; with NCI-H226 lung, above 70.7 µM; in the experiment with NCI-H23 lung it was 22.5 µM; with NCI-H522 lung, 4.53 µM. Moreover, the TGI in the experiment with SF-268 CNS was found to be 35.5 µM; in the experiment with SK-MEL-5 melanoma it was 26.8 µM; in the experiment on SNB-75 CNS it was 36 µM; in the experiment on SR leukemia it was 5.46 µM. In addition, in the experiment with SR leukemia, the GI50 is 1.6 µM.
